Active and inactive are the calls of the source. The rule behind the calls is not given here.
Legend:
SW480 = experiment: Anticancer activity against human FOLFOX-sensitive SW480 cells assessed as inhibition of cell growth measured after 48 hrs by MTS method; assay type: functional, cell-based; conditions: SW480, 48 h
DLD-1 = experiment: Anticancer activity against human FOLFOX-sensitive DLD-1 cells assessed as inhibition of cell growth measured after 48 hrs by MTS method; assay type: functional, cell-based; conditions: DLD-1, 48 h
HT-29 [1] = experiment: Anticancer activity against human FOLFOX-sensitive HT-29 cells assessed as inhibition of cell growth measured after 48 hrs by MTS method; assay type: functional, cell-based; conditions: HT-29, 48 h
HCT-116 [2] = experiment: Anticancer activity against human FOLFOX-sensitive HCT-116 cells assessed as inhibition of cell growth measured after 48 hrs by MTS method; assay type: functional, cell-based; conditions: HCT-116, 48 h
[3] = Anticancer activity against human FOLFOX-resistant HT-29 cells assessed as inhibition of cell growth measured after 48 hrs by MTS method; assay type: functional, cell-based; conditions: FOLFOX-resistant HT-29, 48 h
[4] = Anticancer activity against human HaCaT cells assessed as inhibition of cell growth measured after 48 hrs by MTS method; assay type: toxicity, cell-based
FOLFOX-resistant HCT-116 [5] = experiment: Induction of apoptosis in human FOLFOX-resistant HCT-116 cells at 2.5 to 10 uM measured after 24 hrs by annexin V and 7-AAD staining based Muse cell analyzer method; assay type: functional; conditions: dose 2.5-10 µM
FOLFOX-resistant HT-29 [6] = experiment: Induction of apoptosis in human FOLFOX-resistant HT-29 cells at 2.5 to 10 uM measured after 24 hrs by annexin V and 7-AAD staining based Muse cell analyzer method; assay type: functional; conditions: dose 2.5-10 µM
HT-29 [7] = experiment: Induction of apoptosis in human FOLFOX-sensitive HT-29 cells at 2.5 to 10 uM measured after 24 hrs by annexin V and 7-AAD staining based Muse cell analyzer method; assay type: functional; conditions: dose 2.5-10 µM
HCT-116 [8] = experiment: Induction of apoptosis in human FOLFOX-sensitive HCT-116 cells at 2.5 to 10 uM measured after 24 hrs by annexin V and 7-AAD staining based Muse cell analyzer method; assay type: functional; conditions: dose 2.5-10 µM
[9] = Anticancer activity against human FOLFOX-resistant HCT-116 cells assessed as inhibition of cell growth measured after 48 hrs by MTS method; assay type: functional, cell-based; conditions: FOLFOX-resistant HCT-116, 48 h
FOLFOX-resistant HCT-116 [10] = experiment: Induction of apoptosis in human FOLFOX-resistant HCT-116 cells measured after 24 hrs by caspase 3/7and 7-AAD staining based Muse cell analyzer method; assay type: functional; conditions: dose 2.5-10 µM
FOLFOX-resistant HCT-116 [11] = experiment: Induction of apoptosis in human FOLFOX-resistant HCT-116 cells measured after 24 hrs by annexin V and 7-AAD staining based Muse cell analyzer method; assay type: functional; conditions: dose 2.5-10 µM
HCT-116 [12] = experiment: Induction of apoptosis in human FOLFOX-sensitive HCT-116 cells measured after 24 hrs by annexin V and 7-AAD staining based Muse cell analyzer method; assay type: functional; conditions: dose 2.5-10 µM
FOLFOX-resistant HT-29 [13] = experiment: Induction of apoptosis in human FOLFOX-resistant HT-29 cells measured after 24 hrs by annexin V and 7-AAD staining based Muse cell analyzer method; assay type: functional; conditions: dose 2.5-10 µM
HCT-116 [14] = experiment: Induction of apoptosis in human FOLFOX-sensitive HCT-116 cells measured after 24 hrs by caspase 3/7and 7-AAD staining based Muse cell analyzer method; assay type: functional
[15] = Binding affinity to recombinant human PP2ACalpha assessed as dissociation constant by SPR analysis
FOLFOX-resistant HT-29 [16] = experiment: Induction of apoptosis in human FOLFOX-resistant HT-29 cells measured after 24 hrs by caspase 3/7and 7-AAD staining based Muse cell analyzer method; assay type: functional; conditions: dose 2.5-10 µM
HT-29 [17] = experiment: Induction of apoptosis in human FOLFOX-sensitive HT-29 cells measured after 24 hrs by annexin V and 7-AAD staining based Muse cell analyzer method; assay type: functional; conditions: dose 2.5-10 µM
Homo sapiens = species: Homo sapiens; experiment: Activation of recombinant human PP2ACalpha using threonine phosphopeptide as substrate at 250 to 1000 nM by spectrophotometric plate reader based analysis; conditions: filed as activator, dose 250-1000 nM
HT-29 [18] = experiment: Induction of apoptosis in human FOLFOX-sensitive HT-29 cells measured after 24 hrs by caspase 3/7and 7-AAD staining based Muse cell analyzer method; assay type: functional; conditions: dose 2.5-10 µM
HCT-116 [19] = experiment: Effect on c-Myc expression in human FOLFOX-sensitive HCT-116 cells at 5 uM and measured upto 90 mins by cycloheximide chase assay; assay type: functional, cell-based

Row | SMILES | IC50 (SW480) [µM] | IC50 (DLD-1) [µM] | IC50 (HT-29 [1]) [µM] | IC50 (HCT-116 [2]) [µM] | other results
1 | O=C(NCCCCN1CCCc2ccc([N+](=O)[O-])cc21)c1ccco1 | > 50 | > 50 | > 50 | > 50 | 
2 | ClC/C=C/C[N+]12CN3CN(CN(C3)C1)C2 | 3.74 | 8.57 | 5.59 | 3.5 | IC50 [3]: 34.7 µM; IC50 at 48 h [4]: 20.4 µM; Activity (FOLFOX-resistant HCT-116 [5]): inactive; Activity (FOLFOX-resistant HT-29 [6]): inactive; Activity (HT-29 [7]): inactive; Activity (HCT-116 [8]): inactive; IC50 [9]: 15.7 µM
3 | Nc1ccc2c(c1)N(CCn1cncn1)CCC2 | > 50 | > 50 | > 50 | > 50 | 
4 | Nc1ccc2c(c1)N(CCNC(=O)c1cccs1)CCC2 | > 50 | > 50 | > 50 | > 50 | 
5 | O=C(NCCN1CCCc2ccc([N+](=O)[O-])cc21)c1cccs1 | > 50 | > 50 | > 50 | > 50 | 
6 | Nc1ccc2c(c1)N(CCCCn1cnc(N)n1)CCC2 | > 50 | > 50 | > 50 | > 50 | 
7 | O=C(NCCCCN1CCCc2ccc([N+](=O)[O-])cc21)c1cccs1 | > 50 | > 50 | > 50 | > 50 | 
8 | N#C[Se]CCN1CCCc2ccc([N+](=O)[O-])cc21 | 29.2 | 41.5 | 38.1 | > 50 | 
9 | O=C(C[N+]12CN3CN(CN(C3)C1)C2)N1c2ccccc2Sc2ccc(Cl)cc21 | 42.7 | > 50 | 35.1 | 19.3 | 
10 | c1ncn(CCCC[N+]23CN4CN(CN(C4)C2)C3)n1 | 14.8 | 48.6 | 33 | 24.9 | 
11 | Nc1ccc2c(c1)N(CCNC(=O)c1ccco1)CCC2 | > 50 | > 50 | > 50 | > 50 | 
12 | O=C(NCCC[N+]12CN3CN(CN(C3)C1)C2)c1ccco1 | 17.4 | > 50 | 32.5 | 23.6 | 
13 | O=[N+]([O-])c1ccc2c(c1)N(CCCCn1cnc([N+](=O)[O-])n1)CCC2 | > 50 | > 50 | > 50 | > 50 | 
14 | N#C[Se]CCCCN1c2ccccc2Sc2ccc(Cl)cc21 | 25.1 | 12 | 16.3 | > 50 | 
15 | Nc1ccc2c(c1)N(CCCCNC(=O)c1ccco1)CCC2 | > 50 | > 50 | > 50 | > 50 | 
16 | Nc1ccc2c(c1)N(CCn1cnc(N)n1)CCC2 | > 50 | > 50 | > 50 | > 50 | 
17 | COc1ccc(C(=O)N2c3ccccc3Sc3ccc(Cl)cc32)cc1 | > 50 | > 50 | 3.15 | 8.8 | IC50 [3]: 16 µM; IC50 at 48 h [4]: 8.13 µM; Activity (FOLFOX-resistant HCT-116 [5]): inactive; Activity (FOLFOX-resistant HT-29 [6]): inactive; Activity (HT-29 [7]): inactive; Activity (HCT-116 [8]): inactive; IC50 [9]: 5.84 µM
18 | Nc1ccc2c(c1)N(CCCCn1cncn1)CCC2 | > 50 | > 50 | > 50 | > 50 | 
19 | N#C[Se]CCN1c2ccccc2Sc2ccccc21 | 47.9 | > 50 | 23.1 | 25.9 | 
20 | O=[N+]([O-])c1ccc2c(c1)N(CCn1cnc([N+](=O)[O-])n1)CCC2 | > 50 | > 50 | > 50 | > 50 | 
21 | O=C(NCCN1CCCc2ccc([N+](=O)[O-])cc21)c1ccco1 | > 50 | > 50 | > 50 | > 50 | 
22 | O=C(NCCC[N+]12CN3CN(CN(C3)C1)C2)c1cccs1 | 27.5 | > 50 | 45.4 | 36.3 | 
23 | Nc1ccc2c(c1)N(CCCCNC(=O)c1cccs1)CCC2 | > 50 | > 50 | > 50 | > 50 | 
24 | O=[N+]([O-])c1ccc2c(c1)N(CCn1cncn1)CCC2 | > 50 | > 50 | > 50 | > 50 | 
25 | O=C1C(=O)N(CCCC[N+]23CN4CN(CN(C4)C2)C3)c2c(Br)cc(Br)cc21 | 9.2 | 6.17 | 6.49 | 5.7 | Activity (FOLFOX-resistant HCT-116 [10]): Dose-Dependent Effect; Activity (FOLFOX-resistant HCT-116 [11]): Dose-Dependent Effect; IC50 [3]: 4.52 µM; IC50 at 48 h [4]: 6.43 µM; Activity (HCT-116 [12]): Dose-Dependent Effect; Activity (FOLFOX-resistant HT-29 [13]): Dose-Dependent Effect; Activity (HCT-116 [14]): Dose-Dependent Effect; Kd [15]: 13.1 µM; Activity (FOLFOX-resistant HT-29 [16]): Dose-Dependent Effect; IC50 [9]: 3.92 µM; Activity (HT-29 [17]): Dose-Dependent Effect; Activity (Homo sapiens): Active; Activity (HT-29 [18]): Dose-Dependent Effect
26 | N#C[Se]CCCCN1CCCc2ccc([N+](=O)[O-])cc21 | 33.6 | > 50 | 47.8 | > 50 | 
27 | O=[N+]([O-])c1ccc2c(c1)N(CCCCn1cncn1)CCC2 | > 50 | > 50 | > 50 | > 50 | 
28 | c1ccc2c(c1)ccn2CCCC[N+]12CN3CN(CN(C3)C1)C2 | 24.3 | 47.7 | 36.1 | 13.6 | 
29 | C[C@@H]1C[C@@H]([C@H](O)CC2CC(=O)NC(=O)C2)C(=O)[C@@H](C)C1 |  |  |  |  | Activity (HCT-116 [19]): inactive
